Consider six compounds from publication PMC8469489, “Effect of Lactic Acid Bacteria on the Pharmacokinetics and Metabolism of Ginsenosides in Mice” (Pharmaceutics, 2021).

Series [1] in a line: Pharmacokinetics of ginsenosides after single oral RGE with or without amoxicillin treatment. The class given is in vivo, mice. Conditions: single oral RGE 2 g/kg; for AUC: AUC 0 to 48 h. Here is the method:
Male ICR mice (7-weeks-year-old, 30–35 g) were purchased from Samtako Co. (Osan, Kyunggi-do, Korea). Animals were acclimatized for 1 week in an animal facility at Kyungpook National University. Food and water were available ad libitum.
Before blood sampling, mice were anesthetized using isoflurane (isoflurane vaporizer to 2% with oxygen flow at 0.8 L/min) for 5 min.

On the set-up of series [2]: method as in PMID 32023909. Conditions: cited from earlier work.
Series [3] relates to lactic acid bacteria (LAB). Kind of series: In vitro RGE fermentation with LAB. The conditions noted are these: 7 days incubation.
A short description of series [4]: Recovery of ginsenosides from urine and feces for 48 h after RGE, amoxicillin vs control. The conditions noted are these: for Fecal recovery, change by the amoxicillin treatment: feces 48 h after single oral RGE 2 g/kg, vs control; for Ginsenosides identified in urine: urine 48 h after single oral RGE 2 g/kg.
Experimental: Aliquots (200 μL) of an IS (0.05 ng/mL berberine in methanol) were added to 30 μL of plasma or urine samples. Aliquots (600 μL) of an IS methanol solution containing 0.05 ng/mL berberine were added to 100 μL of 10% feces homogenate samples. […] After centrifugation, 200 μL of the supernatant was transferred to a clean tube and dried under a nitrogen stream at 40 °C. The residue was reconstituted using 100 μL of 70% methanol supplemented with 0.1% formic acid, and a 10-μL aliquot was injected into the LC–MS/MS system.
Series [5] is described as follows: Recovery of ginsenosides from urine and feces for 48 h after RGE, amoxicillin with or without LAB. Conditions: feces 48 h after single oral RGE 2 g/kg; Amoxicillin + LAB vs amoxicillin.
Experimental: (§1) Mice received amoxicillin (n = 12, 20 mg/kg, dissolved in water at 2 mL/kg, twice daily) for 3 days via oral gavage. From the 4th day, mice from the LAB + amoxicillin treatment group received LAB (2 g/kg suspended in water at 2 mL/kg, once daily) for 7 days via oral gavage. Mice from the amoxicillin treatment group received water (2 mL/kg, once daily) for 7 days via oral gavage.
A short description of series [6]: Pharmacokinetics of ginsenosides after single oral RGE after amoxicillin with or without repeated LAB treatment. The conditions noted are these: single oral RGE 2 g/kg; for AUC: AUC 0 to 48 h.
Experimental: as §1
Blood sampling was performed using a sparse sampling method via the right or left retro-orbital vein under isoflurane anesthesia at 0, 2, 4, and 8 h after the RGE administration through the heparinized capillary tube. […] After centrifugation of the blood samples at 10,000× g for 1 min, 30 μL aliquots of plasma were stored at −80 °C until the analysis of the ginsenosides. Subsequent protocols were identical to the amoxicillin treated group.
Pharmacokinetic parameters were calculated using WinNonlin (version 5.1, Pharsight, Mountain View, CA, USA) by a non-compartmental analysis.
Series [7] deals with lactic acid bacteria (LAB). Kind of series: Incubation of single ginsenoside with LAB (formation rate of metabolite ginsenoside). The class given is in vitro ADME. The conditions noted are these: 7 days, 37 °C, MRS broth. Here is the method: To compare the involvement of LAB on individual ginsenoside, an aliquot (10 μL) of each ginsenoside stock solution (10 mM in methanol) was mixed with autoclaved MRS broth (550 mg/10 mL in distilled water) and added 2 g of LAB (contained 1 billion CFU). Then, the mixture was incubated for 7 days in a shaking incubator at 37 °C and 300 rpm. For the analysis of ginsenosides, 0.2 mL aliquot of incubation mixture was collected every 24 h for 7 days. The incubation medium was diluted 100-fold with distilled water and stored at −80 °C. For the ginsenoside analysis, 200 μL of an IS solution (0.05 ng/mL berberine in methanol) was added to 30 μL of 100-fold diluted samples.

Setting [8] is: Amoxicillin 3 days pretreatment.
[9] abbreviates: Amoxicillin 3 days then water 7 days.

SMILES strings stand for the structures.

In general, AUC refers to the area under the concentration-time curve, a measure of exposure. In general, Cmax refers to the maximum level reached in the sampled fluid or tissue. As usually defined, the MRT is the average time that molecules of a dose stay in the body. For orientation: Tmax means the time from dosing to the highest level.

On to `CC(C)=CCC[C@](C)(O[C@@H]1O[C@H](CO[C@@H]2O[C@H](CO)[C@@H](O)[C@H](O)[C@H]2O)[C@@H](O)[C@H](O)[C@H]1O)[C@H]1CC[C@]2(C)[C@@H]1[C@H](O)C[C@@H]1[C@@]3(C)CC[C@H](O[C@@H]4O[C@H](CO)[C@@H](O)[C@H](O)[C@H]4O[C@@H]4O[C@H](CO)[C@@H](O)[C@H](O)[C@H]4O)C(C)(C)[C@@H]3CC[C@]12C` [GRb1, 20(S)-ginsenosides Rb1], for which the AUC worked out at 926 ± 439 ng·h/mL in series [1] (male, ICR, mouse, plasma, po, 2 g/kg, Amoxicillin 3 days pretreatment, read-out: AUC); 896 ± 81.3 ng·h/mL in series [1] (male, ICR, mouse, plasma, po, 2 g/kg, Control, plasma, n = 3, read-out: AUC); 752 ± 478 ng·h/mL in series [6] (male, ICR, mouse, plasma, po, 2 g/kg, AUC, Amoxicillin 3 days then water 7 days); 622 ± 164 ng·h/mL in series [6] (male, ICR, mouse, plasma, po, 2 g/kg, AUC, Amoxicillin + LAB (LAB 2 g/kg once daily 7 days)). Besides, the Cmax in series [1] (male, ICR, mouse, plasma, po, 2 g/kg, Amoxicillin 3 days pretreatment, read-out: Cmax) came out at 28.2 ± 12.9 ng/mL; in series [1] (male, ICR, mouse, plasma, po, 2 g/kg, Control, plasma, read-out: Cmax), 41.3 ± 14.3 ng/mL; in series [6] (male, ICR, mouse, plasma, po, 2 g/kg, Cmax, Amoxicillin 3 days then water 7 days), 23.7 ± 11.6 ng/mL; in series [6] (male, ICR, mouse, plasma, po, 2 g/kg, Cmax, Amoxicillin + LAB), 26.2 ± 4.6 ng/mL. For the same compound, the Half-Life was 21.7 ± 3.6 h in series [1] (male, ICR, mouse, plasma, po, 2 g/kg, Amoxicillin 3 days pretreatment, read-out: Half-life (converted)); 25.9 ± 4.7 h in series [1] (male, ICR, mouse, plasma, po, 2 g/kg, Control, plasma, read-out: Half-Life (converted)); 20.1 ± 2.2 h in series [6] (male, ICR, mouse, plasma, po, 2 g/kg, Half-Life, Amoxicillin 3 days then water 7 days); 16.2 ± 0.9 h in series [6] (male, ICR, mouse, plasma, po, 2 g/kg, Half-life, Amoxicillin + LAB). In addition, the MRT turned out to be 19.3 ± 1.4 h in series [1] (male, ICR, mouse, plasma, po, 2 g/kg, Amoxicillin 3 days pretreatment, read-out: MRT); 16.3 ± 2.7 h in series [1] (male, ICR, mouse, plasma, po, 2 g/kg, Control, plasma, read-out: MRT); 18.6 ± 1.6 h in series [6] (male, ICR, mouse, plasma, po, 2 g/kg, MRT, Amoxicillin 3 days then water 7 days); 16.9 ± 1 h in series [6] (male, ICR, mouse, plasma, po, 2 g/kg, MRT, Amoxicillin + LAB). The Tmax in series [1] (male, ICR, mouse, plasma, Amoxicillin 3 days pretreatment, read-out: Tmax) came to 8 h; in series [6] (male, ICR, mouse, plasma, po, 2 g/kg, Tmax, Amoxicillin 3 days then water 7 days), 3.3 ± 1.2 h; in series [6] (male, ICR, mouse, plasma, po, 2 g/kg, Tmax, Amoxicillin + LAB), 4.7 ± 3.1 h. Moreover, the “Plasma concentrations, amoxicillin treatment compared to the control group” value in series [1] is given as “not significantly affected”. Moreover, the “Ratio of liver AUC to plasma AUC” value in series [2] is given as under 0.2. Moreover, the “Alteration of ginsenoside by fermentation of RGE with LAB” value (“Alteration of ginsenoside” for short) in series [3] is “most significant decrease”. In addition, the “Fecal recovery, change by the amoxicillin treatment” value in series [4] was “increased”. For the same compound, the “Ginsenosides identified in urine” value in series [4] is recorded as “identified in urine”. In series [5], the “Fecal recovery, change by LAB treatment” value was “significantly decreased”. Besides, the “Detection in mouse plasma following repeated LAB administration in addition to amoxicillin” value in series [6] is “detected”. For the same compound, the “Plasma exposure / pharmacokinetic parameters, LAB treatment compared with amoxicillin group” value in series [6] is listed as “not different”.

In the case of `CC(C)=CCC[C@](C)(O[C@@H]1O[C@H](CO)[C@@H](O)[C@H](O)[C@H]1O)[C@H]1CC[C@]2(C)[C@@H]1[C@H](O)C[C@@H]1[C@@]3(C)CC[C@H](O)C(C)(C)[C@@H]3[C@@H](O[C@@H]3O[C@H](CO)[C@@H](O)[C@H](O)[C@H]3O)C[C@]12C` [GRg1], in series [7], the “Metabolite formation on incubation of single ginsenoside with LAB” value (shortened to “Metabolite formation on incubation”) was “produced GRh1”. The “Alteration of ginsenoside” value in series [3] is on record as “gradual decrease”. Moreover, in series [4], the “Fecal recovery, change by the amoxicillin treatment” value is reported as “increased” and the “Ginsenosides identified in urine” value is on record as “identified in urine”. Further, in series [5], the “Fecal recovery, change by LAB treatment” value was “significantly decreased”.

Turning to `CC(C)=CCC[C@](C)(O[C@@H]1O[C@H](CO[C@@H]2O[C@@H](CO)[C@H](O)[C@H]2O)[C@@H](O)[C@H](O)[C@H]1O)[C@H]1CC[C@]2(C)[C@@H]1[C@H](O)C[C@@H]1[C@@]3(C)CC[C@H](O[C@@H]4O[C@H](CO)[C@@H](O)[C@H](O)[C@H]4O[C@@H]4O[C@H](CO)[C@@H](O)[C@H](O)[C@H]4O)C(C)(C)[C@@H]3CC[C@]12C` [GRc], in series [1] (setting [8]), the Cmax is 14.8 ± 6.6 ng/mL, the Half-Life is given as 25.1 ± 9.9 h, the MRT came to 21.9 ± 1.5 h and the Tmax came out at 13.3 ± 9.2 h. In addition, the AUC in series [1] (setting [8]) is 571.7 ± 276 ng·h/mL. For the same compound, in series [1] (Control, plasma), the Cmax was determined as 17.2 ± 3.1 ng/mL, the Half-Life turned out to be 22.8 ± 6.7 h, the MRT stood at 19.9 ± 1.7 h and the Tmax is listed as 8.0 ± 0.0 h. Further, the AUC in series [1] (Control, plasma, n = 3) stood at 508.6 ± 109 ng·h/mL. Besides, the “Plasma concentrations, amoxicillin treatment compared to the control group” value in series [1] is “not significantly affected”. Also, the “Metabolite formation on incubation” value in series [7] was “produced GRg3 with the highest formation rate”. Further, the “Ratio of liver AUC to plasma AUC” value in series [2] is listed as under 0.2. The “Alteration of ginsenoside” value in series [3] was “most significant decrease”. Also, in series [4], the “Fecal recovery, change by the amoxicillin treatment” value is given as “increased” and the “Ginsenosides identified in urine” value was “identified in urine”. The “Fecal recovery, change by LAB treatment” value in series [5] is recorded as “significantly decreased”. In addition, in series [6] (setting [9]), the maximum concentration (Cmax) came out at 13.2 ± 6.6 ng/mL, the Half-Life came out at 20.2 ± 1.8 h, the MRT was determined as 20.6 ± 1.2 h and the Tmax turned out to be 4.7 ± 3.1 h. In series [6] (setting [9]), this compound gave an AUC of 448.2 ± 268.1 ng·h/mL. Moreover, the AUC in series [6] (Amoxicillin + LAB (LAB 2 g/kg once daily 7 days)) is 524.4 ± 146.6 ng·h/mL. Moreover, in series [6] (Amoxicillin + LAB), the Cmax was determined as 18.3 ± 4.3 ng/mL, the Half-Life worked out at 24.1 ± 2.4 h, the MRT is recorded as 19.0 ± 1.3 h and the Tmax was determined as 8.0 ± 0.0 h. In addition, in series [6], the “Detection in mouse plasma following repeated LAB administration in addition to amoxicillin” value is “detected” and the “Plasma exposure / pharmacokinetic parameters, LAB treatment compared with amoxicillin group” value was “not different”.

Take `CC(C)=CCC[C@](C)(O[C@@H]1O[C@H](CO)[C@@H](O)[C@H](O)[C@H]1O)[C@H]1CC[C@]2(C)[C@@H]1[C@H](O)C[C@@H]1[C@@]3(C)CC[C@H](O)C(C)(C)[C@@H]3[C@@H](O[C@@H]3O[C@H](CO)[C@@H](O)[C@H](O)[C@H]3O[C@@H]3O[C@@H](C)[C@H](O)[C@@H](O)[C@H]3O)C[C@]12C` [GRe]: the “Metabolite formation on incubation” value in series [7] is “produced GRh1”. In addition, the “Alteration of ginsenoside” value in series [3] is recorded as “most significant decrease”. For the same compound, in series [4], the “Fecal recovery, change by the amoxicillin treatment” value is reported as “increased” and the “Ginsenosides identified in urine” value is recorded as “identified in urine”. In addition, the “Fecal recovery, change by LAB treatment” value in series [5] is “significantly decreased”.

For `CC(C)=CCC[C@](C)(O)[C@H]1CC[C@]2(C)[C@@H]1[C@H](O)C[C@@H]1[C@@]3(C)CC[C@H](O)C(C)(C)[C@@H]3[C@@H](O[C@@H]3O[C@H](CO)[C@@H](O)[C@H](O)[C@H]3O[C@@H]3O[C@H](CO)[C@@H](O)[C@H](O)[C@H]3O)C[C@]12C` [GRf], the “Metabolite formation on incubation” value in series [7] is given as “produced GRh1”. The “Alteration of ginsenoside” value in series [3] is given as “gradual decrease”. Also, the “Fecal recovery, change by the amoxicillin treatment” value in series [4] is listed as “increased”. Besides, the “Fecal recovery, change by LAB treatment” value in series [5] is on record as “significantly decreased”.

On to `CC(C)=CCC[C@](C)(O[C@@H]1O[C@H](CO)[C@@H](O)[C@H](O)[C@H]1O)[C@H]1CC[C@]2(C)[C@@H]1[C@H](O)C[C@@H]1[C@@]3(C)CC[C@H](O[C@@H]4O[C@H](CO)[C@@H](O)[C@H](O)[C@H]4O)C(C)(C)[C@@H]3CC[C@]12C` [GF2], for which, in series [7], the “Metabolite formation on incubation” value is reported as “the highest among the ginsenoside formation rate”. Moreover, the “Alteration of ginsenoside” value in series [3] is recorded as “gradual decrease”. Further, the “Fecal recovery, change by the amoxicillin treatment” value in series [4] is “significantly decreased”. Further, in series [5], the “Fecal recovery, change by LAB treatment” value is on record as “remained similar”. Moreover, the “Plasma exposure / pharmacokinetic parameters, LAB treatment compared with amoxicillin group” value in series [6] is listed as “increased”.
